Results taken from article PMC4744035, “In Vivo, In Vitro, and In Silico Characterization of Peptoids as Antimicrobial Agents” (PLoS ONE, 2016).
Converted amounts (≈) assume the structure as drawn. Like-named read-outs stand apart in the source and are kept apart here. Numbered stars: 1 amine (or outer) side, 2 acyl side, 3 side chain; on linkers, the order of the positions; unused ones are H or OH. Square brackets hold non-standard residues; d marks the D form. Peptide text beside a SMILES is read from it. X1 = CC(C)[C@H](C)N(CC(=O)[*:2])[*:1]; Nspe = C[C@H](NCC(=O)O)c1ccccc1; Nlys = NCCCCNCC(=O)O

What was measured:
E. coli ATCC 35218 = type: cell-based
Outline: (§1)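 MICs determined by 2:1 serial broth microdilution in cation-adjusted Mueller-Hinton broth per CLSI M7-A6, using inoculum at 1 x 10^6 CFU/mL mixed 1:1 with peptoid solution. Three independent replicates, each with two parallel trials.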

B. subtilis ATCC 6633 = type: cell-based
Outline: as §1

E. faecium mic80 (VRE) = assay: microbe, parasite or virus in culture
Outline: (§2)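 Modified broth microdilution in Mueller Hinton medium in polypropylene plates; test agents serially diluted in 0.01% acetic acid with 0.2% BSA at 10-fold final concentration.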

S. aureus ATCC25923 = assay: microbe, parasite or virus in culture
Outline: as §2

[1] = system: P. aeruginosa LES400 (MDR); assay: microbe, parasite or virus in culture
Outline: as §2

P. aeruginosa 9 (MDR) = assay: microbe, parasite or virus in culture
Outline: as §2

[2] = system: P. aeruginosa H1027 (MDR); assay: microbe, parasite or virus in culture
Outline: as §2

S. aureus C623 (MRSA) = assay: microbe, parasite or virus in culture
Outline: as §2

P. aeruginosa 213 (MDR) = assay: microbe, parasite or virus in culture
Outline: as §2

[3] = system: P. aeruginosa H103 (wild type); assay: microbe, parasite or virus in culture
Outline: as §2

E. faecium T62764 (VRE) = assay: microbe, parasite or virus in culture
Outline: as §2

[4] = system: K. pneumonia 63575 (ESBL); assay: microbe, parasite or virus in culture
Outline: as §2

E. coli 63103 (ESBL) = assay: microbe, parasite or virus in culture
Outline: as §2

P. maltophilia ATCC13637 = assay: microbe, parasite or virus in culture
Outline: as §2

E. faecalis F43559 (VRE) = assay: microbe, parasite or virus in culture
Outline: as §2

E. coli 64771 (ESBL) = assay: microbe, parasite or virus in culture
Outline: as §2

P. aeruginosa 198 (MDR) = assay: microbe, parasite or virus in culture
Outline: as §2

[5] = system: E. cloacae 218R Class C β-lactamase; assay: microbe, parasite or virus in culture
Outline: as §2

E. faecalis W61950 (VRE) = assay: microbe, parasite or virus in culture
Outline: as §2

[6] = system: K. pneumonia 61962 (ESBL); assay: microbe, parasite or virus in culture
Outline: as §2

[7] = system: P. aeruginosa H1030 (MDR); assay: microbe, parasite or virus in culture; settings: P. aeruginosa H1030 (MDR)
Outline: as §2

E. faecalis ATCC29212 = assay: microbe, parasite or virus in culture; settings: E. faecalis ATCC29212
Outline: as §2

erythrocytes = assay: Hemolytic activity (HD10/HD50); type: cell-based
Source text: Table 1 Characteristics of antimicrobial peptoids, screened for activity against B. subtilis and E. coli bacterial strains. | column: HD10 / HD50

NIH 3T3 cells = assay: Metabolic activity, MTS assay; type: cell-based, mouse
Protocol: NIH 3T3 mouse fibroblast cells were cultured in complete Dulbecco’s Modified Eagle’s Media. A peptoid solution plate (100 µL per well) was prepared by serial dilution of aqueous peptoid stock solutions in Hank’s balanced salt solution. A day-old cell monolayer was washed thoroughly with Hank’s balanced salt solution and replenished with 100 µL Hank’s balanced salt solution per well. Peptoid solutions were transferred onto the day-old cell monolayers, which contained approximately 5000 cells per well. […] The average of six replicate trials is reported.

C[C@H](c1ccccc1)N(CC(N)=O)C(=O)CN(C(=O)CN(CCCCN)C(=O)CN(C(=O)CN(C(=O)CN(CCCCN)C(=O)CN(C(=O)CN(C(=O)CN(CCCCN)C(=O)CN(C(=O)CN(C(=O)CNCCCCN)[C@@H](C)c1ccccc1)[C@H](C)c1ccccc1)[C@@H](C)c1ccccc1)[C@H](C)c1ccccc1)[C@@H](C)c1ccccc1)[C@H](C)c1ccccc1)[C@@H](C)c1ccccc1 [1-Nrpe3,6,9,12, H-(NLys-Nspe-Nrpe)4-NH2]
MIC E. coli (E. coli ATCC 35218): 6.3 µM (≈ 11.5 µg/mL) | MIC B. subtilis (B. subtilis ATCC 6633): 1.6 µM (≈ 2.91 µg/mL) | MIC (E. faecium mic80 (VRE); E. faecium mic80 (VRE)): 4 µg/mL (≈ 2.2 µM) | MIC (S. aureus ATCC25923; S. aureus ATCC25923): 4 µg/mL (≈ 2.2 µM) | MIC ([1]; P. aeruginosa LES400 (MDR)): 4 µg/mL (≈ 2.2 µM) | MIC (P. aeruginosa 9 (MDR); P. aeruginosa 9 (MDR)): 32 µg/mL (≈ 17.6 µM) | MIC ([2]; P. aeruginosa H1027 (MDR)): 4 µg/mL (≈ 2.2 µM) | MIC (S. aureus C623 (MRSA); S. aureus C623 (MRSA)): 4 µg/mL (≈ 2.2 µM) | MIC (P. aeruginosa 213 (MDR); P. aeruginosa 213 (MDR)): 8 µg/mL (≈ 4.4 µM) | MIC ([3]; P. aeruginosa H103 (wild type)): 8 µg/mL (≈ 4.4 µM) | MIC (E. faecium T62764 (VRE); E. faecium T62764 (VRE)): 1 µg/mL (≈ 0.55 µM) | MIC ([4]; K. pneumonia 63575 (ESBL)): 16 µg/mL (≈ 8.79 µM) | MIC (E. coli 63103 (ESBL); E. coli 63103 (ESBL)): 4 µg/mL (≈ 2.2 µM) | MIC (P. maltophilia ATCC13637; P. maltophilia ATCC13637): 2 µg/mL (≈ 1.1 µM) | MIC (E. faecalis F43559 (VRE); E. faecalis F43559 (VRE)): 4 µg/mL (≈ 2.2 µM) | MIC (E. coli 64771 (ESBL); E. coli 64771 (ESBL)): 4 µg/mL (≈ 2.2 µM) | MIC (P. aeruginosa 198 (MDR); P. aeruginosa 198 (MDR)): 8 µg/mL (≈ 4.4 µM) | MIC ([5]; E. cloacae 218R Class C β-lactamase): 4 µg/mL (≈ 2.2 µM) | MIC (E. faecalis W61950 (VRE); E. faecalis W61950 (VRE)): 8 µg/mL (≈ 4.4 µM) | MIC ([6]; K. pneumonia 61962 (ESBL)): 8 µg/mL (≈ 4.4 µM) | MIC [7]: 8 µg/mL (≈ 4.4 µM) | MIC (E. faecalis ATCC29212): 4 µg/mL (≈ 2.2 µM) | HD10 (hemolytic activity) (erythrocytes; erythrocytes, first value of HD10 / HD50 cell): 16 | HD50 (hemolytic activity) (erythrocytes; erythrocytes, second value of HD10 / HD50 cell): 67

CC(C)[C@H](C)N(CC(=O)N(CC(=O)N(CCCCN)CC(=O)N(CC(=O)N(CC(=O)N(CCCCN)CC(=O)N(CC(=O)N(CC(=O)N(CCCCN)CC(=O)N(CC(=O)N(CC(N)=O)[C@@H](C)c1ccccc1)[C@@H](C)C(C)C)[C@@H](C)c1ccccc1)[C@@H](C)C(C)C)[C@@H](C)c1ccccc1)[C@@H](C)C(C)C)[C@@H](C)c1ccccc1)C(=O)CNCCCCN [1-Nsdp2.5.8.11, H-(NLys-Nsdp-Nspe)4-NH2] (H-[Nlys][X1][Nspe][Nlys][X1][Nspe][Nlys][X1][Nspe][Nlys][X1][Nspe]-NH2)
ID50 (inhibitory dose, metabolic activity) (NIH 3T3 cells): 20 µM | MIC E. coli (E. coli ATCC 35218): 12.5 µM (≈ 21 µg/mL) | MIC B. subtilis (B. subtilis ATCC 6633): 0.78 µM (≈ 1.31 µg/mL) | MIC (E. faecium mic80 (VRE); mic80 (VRE)): 4 µg/mL (≈ 2.38 µM) | MIC (S. aureus ATCC25923; ATCC25923): 8 µg/mL (≈ 4.75 µM) | MIC ([1]; LES400 (MDR)): 16 µg/mL (≈ 9.51 µM) | MIC (P. aeruginosa 9 (MDR); 9 (MDR)): 256 µg/mL (≈ 152 µM) | MIC ([2]; H1027 (MDR)): 4 µg/mL (≈ 2.38 µM) | MIC (S. aureus C623 (MRSA); C623): 8 µg/mL (≈ 4.75 µM) | MIC (P. aeruginosa 213 (MDR); 213 (MDR)): 16 µg/mL (≈ 9.51 µM) | MIC ([3]; H103 (wild type)): 8 µg/mL (≈ 4.75 µM) | MIC (E. faecium T62764 (VRE); T62764 (VRE)): 2 µg/mL (≈ 1.19 µM) | MIC [4]: 32 µg/mL (≈ 19 µM) | MIC (E. coli 63103 (ESBL); 63103 (ESBL)): 16 µg/mL (≈ 9.51 µM) | MIC (P. maltophilia ATCC13637; ATCC13637): 1 µg/mL (≈ 0.594 µM) | MIC (E. faecalis F43559 (VRE); F43559 (VRE)): 32 µg/mL (≈ 19 µM) | MIC (E. coli 64771 (ESBL); 64771 (ESBL)): 8 µg/mL (≈ 4.75 µM) | MIC (P. aeruginosa 198 (MDR); 198 (MDR)): 32 µg/mL (≈ 19 µM) | MIC ([5]; 218R Class C β-lactamase): 16 µg/mL (≈ 9.51 µM) | MIC (E. faecalis W61950 (VRE); W61950 (VRE)): 32 µg/mL (≈ 19 µM) | MIC [6]: 64 µg/mL (≈ 38 µM) | MIC [7]: 16 µg/mL (≈ 9.51 µM) | MIC (E. faecalis ATCC29212): 8 µg/mL (≈ 4.75 µM) | HD10 (hemolytic activity) (erythrocytes): 111 | HD50 (hemolytic activity) (erythrocytes): > 200
